This is an account of results in patent publication US20050176760A1, “N-'4-(2-imino-pyrrolidin-1-yl)phenyl!-acetamide and corresponding piperidine derivatives as factor xa inhibitors for the treatment of thrombo-embolic diseases” (Merck Patent GmbH, priority 2002, published 2005).

pIC50: −log10 of the molar value.

A word on the pIC50: it is the IC50 on a negative log10 scale, so that one unit is a factor of ten. A low value points to a high IC50.

Assay [1] addresses FXa (Homo sapiens, UniProt P00742). Put plainly: Factor Xa inhibition (FXa-IC50). The assay is classed as biochemical. The note with it: Table 1, pharmacological data, 'Affinity to receptors'. An excerpt: The inhibition of factor Xa by the compounds according to the invention and the measurement of the anticoagulant and antithrombotic activity can be determined by conventional in-vitro or in-vivo methods. A suitable method is described, for example, by J. Hauptmann et al. in Thrombosis and Haemostasis 1990, 63, 220-223.
The inhibition of factor Xa can be measured, for example by the method of T. Hara et al. in Thromb. Haemostas. 1994, 71, 314-319.

The target in assay [2] is TF/FVIIa (Homo sapiens, UniProt P08709). In words: TF/factor VIIa inhibition (TF/FVIIa-IC50). In kind it is biochemical. Particulars: Table 1, pharmacological data, 'Affinity to receptors'. An excerpt: The inhibition of factor Vila by the compounds according to the invention and the measurement of the anticoagulant and antithrombotic activity can be determined by conventional in-vitro or in-vivo methods. A conventional method for the measurement of the inhibition of factor VIIa is described, for example, by H. F. Ronning et al. in Thrombosis Research 1996, 84, 73-81.
Chain of TF/FVIIa (P08709 213-466 limits assumed): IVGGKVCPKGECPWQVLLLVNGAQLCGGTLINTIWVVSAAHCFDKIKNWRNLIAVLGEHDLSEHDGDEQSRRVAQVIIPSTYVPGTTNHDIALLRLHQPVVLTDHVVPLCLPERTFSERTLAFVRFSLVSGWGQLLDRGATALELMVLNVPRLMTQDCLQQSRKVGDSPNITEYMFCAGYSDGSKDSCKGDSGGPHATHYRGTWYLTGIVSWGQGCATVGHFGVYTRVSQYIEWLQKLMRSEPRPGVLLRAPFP
Chain of TF/FVIIa (P08709 61-212 limits assumed): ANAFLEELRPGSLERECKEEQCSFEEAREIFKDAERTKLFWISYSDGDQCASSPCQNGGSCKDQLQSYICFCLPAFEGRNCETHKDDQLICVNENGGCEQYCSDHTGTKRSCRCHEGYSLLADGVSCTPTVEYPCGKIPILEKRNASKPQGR
Chain of TF/FVIIa (P13726 33-295 partner): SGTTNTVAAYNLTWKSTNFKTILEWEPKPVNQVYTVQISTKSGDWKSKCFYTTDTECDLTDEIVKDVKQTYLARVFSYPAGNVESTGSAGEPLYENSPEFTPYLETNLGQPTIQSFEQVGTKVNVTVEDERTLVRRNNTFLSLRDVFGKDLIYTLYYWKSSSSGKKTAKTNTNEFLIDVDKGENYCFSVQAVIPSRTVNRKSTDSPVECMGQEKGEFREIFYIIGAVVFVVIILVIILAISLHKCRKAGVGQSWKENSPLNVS

Chain of FXa (P00742 235-488 limits assumed): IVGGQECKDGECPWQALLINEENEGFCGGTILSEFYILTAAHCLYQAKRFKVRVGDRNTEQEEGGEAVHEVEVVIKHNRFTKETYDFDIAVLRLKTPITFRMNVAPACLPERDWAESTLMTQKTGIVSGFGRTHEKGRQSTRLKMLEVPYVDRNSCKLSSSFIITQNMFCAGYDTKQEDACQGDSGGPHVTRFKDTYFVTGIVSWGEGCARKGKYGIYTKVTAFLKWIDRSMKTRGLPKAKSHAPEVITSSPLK
Chain of FXa (P00742 41-179 limits assumed): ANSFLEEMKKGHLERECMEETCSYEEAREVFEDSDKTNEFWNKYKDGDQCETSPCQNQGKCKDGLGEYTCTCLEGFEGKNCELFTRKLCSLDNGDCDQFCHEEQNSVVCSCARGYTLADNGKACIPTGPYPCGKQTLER

In the case of `NCc1cccc(NC(C(=O)Nc2ccc(N3CCCC3=NO)c(Cl)c2)c2ccccc2)c1` (racemic) [AA, (R, S)-2-(3-aminomethylphenylamino)-N-[3-chloro-4-(2-hydroxyiminopyrrolidin-1-yl)phenyl]-2-phenylacetamide], the pIC50 is 6.66 in assay [1] and 6.54 in assay [2].

For the compound `N=C1CCCN1c1ccc(NC(=O)C(Nc2cccc(CN)c2)c2ccccc2)cc1Cl` (racemic) [AB, (R, S)-2-(3-aminomethylphenylamino)-N-[3-chloro-4-(2-iminopyrrolidin-1-yl)phenyl]-2-phenylacetamide], the pIC50 in assay [1] was 7.24; in assay [2], 7.00.

For the compound `CON=C1CCCCN1c1ccc(NC(=O)[C@H](CC(C)C)Oc2ccc3ccnc(N)c3c2)cc1` (single isomer, unassigned) [BA], the pIC50 is 6.17 in assay [1] and 6.31 in assay [2].

Regarding `CC(C)C[C@H](Oc1ccc2ccnc(N)c2c1)C(=O)Nc1ccc(N2CCCCC2=N)cc1` [BB, (S)-2-(1-aminoisoquinolin-7-yloxy)-N-[4-(2-iminopiperidin-1-yl)phenyl]-4-methylvaleramide], the figures for the pIC50 in assay [1] and in assay [2] were 5.57 and 5.70, respectively.

With `Cc1cc(NC(=O)C(Nc2cccc(CN)c2)c2ccccc2Cl)ccc1N1CCCC1=NCCN(C)C` (stereo not shown) [DA, 2-(3-aminomethylphenylamino)-N-[3-methyl-4-(2-(2-dimethylaminoethylimino)pyrrolidin-1-yl)phenyl]-2-(2-chloro)phenyl-acetamide], the negative logarithm of the IC50 (pIC50) was 7.18 in assay [1] and 6.89 in assay [2].
